Reference: patent US20220339167A1, “HORMONE D (VITAMIN D) AND ITS DERIVATIVES FOR THE TREATMENT AND PREVENTION OF CANCER” (Industrial Technologies & Biotechnologies, priority 2019, published 2022)

How the values were obtained:
HL-60 = details: cited from earlier work
cancer = details: cited from earlier work
[1] = test system: cancer or major cardiovascular events; details: 2000 IU daily for 5 years, initially healthy adults; cited from earlier work
nonmelanoma skin cancers = assay: oral hormone D3 treatment of nonmelanoma skin cancers; type: in vivo; details: twelve nonmelanoma skin cancers; oral intake, 466 IU daily, between 6 and 8 months
normal colonic mucosa = details: six months; vitamin D3 800 IU daily with calcium 2000 mg daily; cited from earlier work
colorectal cancer = details: 400 IU vitamin D3 with 1000 mg elemental calcium as calcium carbonate; average seven years follow-up; cited from earlier work

| SMILES | cell differentiation (HL-60) | authors' conclusion on cancer prevention (cancer; high dose supplementation prescribed monthly) | participants with primary outcome of cancer (cancer; oral, initial bolus 200,000 IU then 100,000 IU monthly, up to 4 years, without calcium, placebo group 6.4%) | incidence of cancer or major cardiovascular events [1] | outcome of treated nonmelanoma skin cancers (nonmelanoma skin cancers) | apoptosis in normal colonic mucosa (molecular markers) (normal colonic mucosa) | interaction between risk of colorectal cancer and supplementation (colorectal cancer) |
| --- | --- | --- | --- | --- | --- | --- | --- |
| C=C1/C(=C\C=C2/CCC[C@]3(C)[C@@H]([C@H](C)CCCC(C)(C)O)CC[C@@H]23)C[C@@H](O)C[C@@H]1O [1α,25-dihydroxyvitamin D3] | induces HL-60 differentiation into macrophage-monocyte like cells |  |  |  |  |  |  |
| C=C1CC[C@H](O)C/C1=C/C=C1\CCC[C@]2(C)[C@@H]([C@H](C)CCCC(C)C)CC[C@@H]12 [hormone D3, cholecalciferol] |  | may no prevent cancer | 6.5% | not reduce the incidence of cancer or major cardiovascular events | all of them were resolved completely | may enhance apoptosis in normal colonic mucosa | no significant interaction |
